Experimental data published in patent publication US9738634B2, “Heterocyclic amide compound and herbicide” (SYNGENTA PARTICIPATIONS AG, priority 2013, dated 2017).

Key:
Format in all cases: in vivo
Details in all cases: treatment dosage 320 g/ha
[1] = system: barnyard grass; test: Test Example 1: weedkilling efficacy, preemergent weed treatment in the submerged state; A: barnyard grass
Summary of the method: (§1)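 Pre-emergence application onto floodwater (4 cm, alluvial soil) on the day of sowing, dose expressed as g/ha from diluted emulsion formulation. Weeds sown with 2.5-leaf transplanted rice as crop; plants held at 25–30 °C in greenhouse and scored against assessment criteria after 3 weeks.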

[2] = system: bulrush; test: Test Example 1: weedkilling efficacy, preemergent weed treatment in the submerged state; B: bulrush
Summary of the method: as §1

[3] = system: oval-leafed pondweed; test: Test Example 1: weedkilling efficacy, preemergent weed treatment in the submerged state; C: oval-leafed pondweed
Summary of the method: as §1

[4] = system: transplanted rice; test: Test Example 1: preemergent weed treatment in the submerged state, effect on crop; a: transplanted rice
Summary of the method: as §1

[5] = system: barnyard grass; test: Test Example 2: weedkilling efficacy, growth period weed treatment in the submerged state; A: barnyard grass
Summary of the method: (§2)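 Weeds treated at the 1-2 leaf stage by application of diluted emulsion onto floodwater (4 cm depth, alluvial soil) at specified g/ha. Grown in greenhouse at 25 to 30° C; herbicidal effect rated three weeks after treatment.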

[6] = system: bulrush; test: Test Example 2: weedkilling efficacy, growth period weed treatment in the submerged state; B: bulrush
Summary of the method: as §2

[7] = system: oval-leafed pondweed; test: Test Example 2: weedkilling efficacy, growth period weed treatment in the submerged state; C: oval-leafed pondweed
Summary of the method: as §2

[8] = system: crabgrass; test: Test Example 3: weedkilling efficacy through soil treatment; D: crabgrass
Summary of the method: (§3)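 Crop and weed responses were judged three weeks after a uniform surface spray of the water-diluted emulsion at the given g/ha rate. Seeds sat beneath about 1.5 cm of sterilized diluvial soil, and boxes stood in a greenhouse at 25 to 30° C.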

[9] = system: green foxtail; test: Test Example 3: weedkilling efficacy through soil treatment; E: green foxtail
Summary of the method: as §3

[10] = system: barnyard grass; test: Test Example 3: weedkilling efficacy through soil treatment; F: barnyard grass
Summary of the method: as §3

[11] = system: wild oat; test: Test Example 3: weedkilling efficacy through soil treatment; G: wild oat
Summary of the method: as §3

[12] = system: black-grass; test: Test Example 3: weedkilling efficacy through soil treatment; H: black-grass
Summary of the method: as §3

[13] = system: Italian ryegrass; test: Test Example 3: weedkilling efficacy through soil treatment; I: Italian ryegrass
Summary of the method: as §3

[14] = system: common wind-grass; test: Test Example 3: weedkilling efficacy through soil treatment; J: common wind-grass
Summary of the method: as §3

[15] = system: Indian mallow; test: Test Example 3: weedkilling efficacy through soil treatment; K: Indian mallow
Summary of the method: as §3

[16] = system: redroot pigweed; test: Test Example 3: weedkilling efficacy through soil treatment; L: redroot pigweed
Summary of the method: as §3

[17] = system: fig-leafed goosefoot; test: Test Example 3: weedkilling efficacy through soil treatment; M: fig-leafed goosefoot
Summary of the method: as §3

[18] = system: chickweed; test: Test Example 3: weedkilling efficacy through soil treatment; N: chickweed
Summary of the method: as §3

[19] = system: directly sown rice; test: Test Example 3: soil treatment, effect on crop; b: directly sown rice
Summary of the method: as §3

[20] = system: corn; test: Test Example 3: soil treatment, effect on crop; c: corn
Summary of the method: as §3

[21] = system: soybean; test: Test Example 3: soil treatment, effect on crop; d: soybean
Summary of the method: as §3

[22] = system: wheat; test: Test Example 3: soil treatment, effect on crop; e: wheat
Summary of the method: as §3

[23] = system: beet; test: Test Example 3: soil treatment, effect on crop; f: beet
Summary of the method: as §3

[24] = system: rapeseed; test: Test Example 3: soil treatment, effect on crop; g: rapeseed
Summary of the method: as §3

[25] = system: crabgrass; test: Test Example 4: weedkilling efficacy by foliar treatment; D: crabgrass
Summary of the method: (§4)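 Seeds are spot-sown into sterilized diluvial soil and covered with about 1.5 cm of soil. After 14 days' greenhouse growth at 25 to 30° C, plants are sprayed on stems and leaves with diluted emulsion at the stated g/ha rate, then scored at 3 weeks.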

[26] = system: green foxtail; test: Test Example 4: weedkilling efficacy by foliar treatment; E: green foxtail
Summary of the method: as §4

[27] = system: barnyard grass; test: Test Example 4: weedkilling efficacy by foliar treatment; F: barnyard grass
Summary of the method: as §4

[28] = system: wild oat; test: Test Example 4: weedkilling efficacy by foliar treatment; G: wild oat
Summary of the method: as §4

[29] = system: black-grass; test: Test Example 4: weedkilling efficacy by foliar treatment; H: black-grass
Summary of the method: as §4

[30] = system: Italian ryegrass; test: Test Example 4: weedkilling efficacy by foliar treatment; I: Italian ryegrass
Summary of the method: as §4

[31] = system: common wind-grass; test: Test Example 4: weedkilling efficacy by foliar treatment; J: common wind-grass
Summary of the method: as §4

[32] = system: Indian mallow; test: Test Example 4: weedkilling efficacy by foliar treatment; K: Indian mallow
Summary of the method: as §4

[33] = system: redroot pigweed; test: Test Example 4: weedkilling efficacy by foliar treatment; L: redroot pigweed
Summary of the method: as §4

[34] = system: fig-leafed goosefoot; test: Test Example 4: weedkilling efficacy by foliar treatment; M: fig-leafed goosefoot
Summary of the method: as §4

[35] = system: chickweed; test: Test Example 4: weedkilling efficacy by foliar treatment; N: chickweed
Summary of the method: as §4

[36] = system: catchweed; test: Test Example 4: weedkilling efficacy by foliar treatment; O: catchweed
Summary of the method: as §4

[37] = system: birds-eye speedwell; test: Test Example 4: weedkilling efficacy by foliar treatment; p: birds-eye speedwell
Summary of the method: as §4

[38] = system: directly sown rice; test: Test Example 4: foliar treatment, effect on crop; b: directly sown rice
Summary of the method: as §4

[39] = system: corn; test: Test Example 4: foliar treatment, effect on crop; c: corn
Summary of the method: as §4

[40] = system: soybean; test: Test Example 4: foliar treatment, effect on crop; d: soybean
Summary of the method: as §4

[41] = system: wheat; test: Test Example 4: foliar treatment, effect on crop; e: wheat
Summary of the method: as §4

[42] = system: beet; test: Test Example 4: foliar treatment, effect on crop; f: beet
Summary of the method: as §4

[43] = system: rapeseed; test: Test Example 4: foliar treatment, effect on crop; g: rapeseed
Summary of the method: as §4

CC1=C(c2cccnc2F)C(=O)N(C(C)(C)C(=O)Nc2cc(C(F)(F)F)cc(F)n2)CO1 [B-2-13]
A (barnyard grass) weedkilling efficacy grade [1]: 5 (weed kill ratio 90% or more, (practically complete withering)) | B (bulrush) weedkilling efficacy grade [2]: 5 (weed kill ratio 90% or more, (practically complete withering)) | C (oval-leafed pondweed) weedkilling efficacy grade [3]: 5 (weed kill ratio 90% or more, (practically complete withering)) | a (transplanted rice) effect on crop grade [4]: 1 (weed kill ratio 5% or more, less than 20%) | A (barnyard grass) weedkilling efficacy grade [5]: 5 (weed kill ratio 90% or more, (practically complete withering)) | B (bulrush) weedkilling efficacy grade [6]: 5 (weed kill ratio 90% or more, (practically complete withering)) | C (oval-leafed pondweed) weedkilling efficacy grade [7]: 5 (weed kill ratio 90% or more, (practically complete withering)) | D (crabgrass) weedkilling efficacy grade [8]: 5 (weed kill ratio 90% or more, (practically complete withering)) | E (green foxtail) weedkilling efficacy grade [9]: 5 (weed kill ratio 90% or more, (practically complete withering)) | F (barnyard grass) weedkilling efficacy grade [10]: 5 (weed kill ratio 90% or more, (practically complete withering)) | G (wild oat) weedkilling efficacy grade [11]: 5 (weed kill ratio 90% or more, (practically complete withering)) | H (black-grass) weedkilling efficacy grade [12]: 5 (weed kill ratio 90% or more, (practically complete withering)) | I (Italian ryegrass) weedkilling efficacy grade [13]: 5 (weed kill ratio 90% or more, (practically complete withering)) | J (common wind-grass) weedkilling efficacy grade [14]: 5 (weed kill ratio 90% or more, (practically complete withering)) | K (Indian mallow) weedkilling efficacy grade [15]: 0 (weed kill ratio 5% or less (practically no effect)) | L (redroot pigweed) weedkilling efficacy grade [16]: 4 (weed kill ratio 70% or more, less than 90%) | M (fig-leafed goosefoot) weedkilling efficacy grade [17]: 3 (weed kill ratio 40% or more, less than 70%) | N (chickweed) weedkilling efficacy grade [18]: 3 (weed kill ratio 40% or more, less than 70%) | b (directly sown rice) effect on crop grade [19]: 5 (weed kill ratio 90% or more, (practically complete withering)) | c (corn) effect on crop grade [20]: 1 (weed kill ratio 5% or more, less than 20%) | d (soybean) effect on crop grade [21]: 0 (weed kill ratio 5% or less (practically no effect)) | e (wheat) effect on crop grade [22]: 0 (weed kill ratio 5% or less (practically no effect)) | f (beet) effect on crop grade [23]: 4 (weed kill ratio 70% or more, less than 90%) | g (rapeseed) effect on crop grade [24]: 4 (weed kill ratio 70% or more, less than 90%) | D (crabgrass) weedkilling efficacy grade [25]: 5 (weed kill ratio 90% or more, (practically complete withering)) | E (green foxtail) weedkilling efficacy grade [26]: 5 (weed kill ratio 90% or more, (practically complete withering)) | F (barnyard grass) weedkilling efficacy grade [27]: 5 (weed kill ratio 90% or more, (practically complete withering)) | G (wild oat) weedkilling efficacy grade [28]: 3 (weed kill ratio 40% or more, less than 70%) | H (black-grass) weedkilling efficacy grade [29]: 5 (weed kill ratio 90% or more, (practically complete withering)) | I (Italian ryegrass) weedkilling efficacy grade [30]: 5 (weed kill ratio 90% or more, (practically complete withering)) | J (common wind-grass) weedkilling efficacy grade [31]: 5 (weed kill ratio 90% or more, (practically complete withering)) | K (Indian mallow) weedkilling efficacy grade [32]: 5 (weed kill ratio 90% or more, (practically complete withering)) | L (redroot pigweed) weedkilling efficacy grade [33]: 4 (weed kill ratio 70% or more, less than 90%) | M (fig-leafed goosefoot) weedkilling efficacy grade [34]: 4 (weed kill ratio 70% or more, less than 90%) | N (chickweed) weedkilling efficacy grade [35]: 4 (weed kill ratio 70% or more, less than 90%) | O (catchweed) weedkilling efficacy grade [36]: 5 (weed kill ratio 90% or more, (practically complete withering)) | P (birds-eye speedwell) weedkilling efficacy grade [37]: 5 (weed kill ratio 90% or more, (practically complete withering)) | b (directly sown rice) effect on crop grade [38]: 3 (weed kill ratio 40% or more, less than 70%) | c (corn) effect on crop grade [39]: 4 (weed kill ratio 70% or more, less than 90%) | d (soybean) effect on crop grade [40]: 4 (weed kill ratio 70% or more, less than 90%) | e (wheat) effect on crop grade [41]: 0 (weed kill ratio 5% or less (practically no effect)) | f (beet) effect on crop grade [42]: 4 (weed kill ratio 70% or more, less than 90%) | g (rapeseed) effect on crop grade [43]: 4 (weed kill ratio 70% or more, less than 90%)
